Assay results as given in US10647713B2 (Nimbus Lakshmi, Inc., priority 2016, dated 2020).

Biological target: human TYK2 (JH2domain-pseudokinase) (Homo sapiens (Human), UniProt P29597)
Test: TYK2 JH2 Domain Binding Assay (KINOMEscan, DiscoveRx)
Conditions: 11-point dilution, duplicate
Outline: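 Kd from duplicate 11-point 3-fold dilutions starting at 30,000 nM, fitted by Hill equation with slope fixed at −1. Compounds (final 0.9% DMSO) displace DNA-tagged HEK293-expressed TYK2 JH2 fusion (<0.1 nM) from ligand-coated beads over 1 h at room temperature; eluted kinase read by qPCR.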

Sequence of human TYK2 (JH2domain-pseudokinase) (P29597 556-888): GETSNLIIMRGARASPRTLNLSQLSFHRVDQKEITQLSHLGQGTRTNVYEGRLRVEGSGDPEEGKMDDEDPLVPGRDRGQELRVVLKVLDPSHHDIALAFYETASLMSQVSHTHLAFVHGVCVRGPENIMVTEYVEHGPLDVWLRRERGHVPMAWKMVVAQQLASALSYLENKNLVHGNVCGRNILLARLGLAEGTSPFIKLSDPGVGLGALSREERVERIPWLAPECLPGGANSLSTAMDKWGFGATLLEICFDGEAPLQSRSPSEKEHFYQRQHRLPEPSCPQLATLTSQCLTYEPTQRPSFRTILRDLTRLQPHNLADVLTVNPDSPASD

## Cc1nc2c(Nc3ccc([C@H]4CCCO4)cc3S(C)(=O)=O)cc(NC(=O)C3CC3(F)F)nc2[nH]1 (stereo partly drawn) [I-340, 2,2-difluoro-N-(2-methyl-7-((2-(methylsulfonyl)-4-((R)-tetrahydrofuran-2-yl)phenyl)amino)-3H-imidazo[4,5-b]pyridin-5-yl)cyclopropane-1-carboxamide]
  Kd: 0.5 to 1 nM

## Cc1cnc(-c2ccc(Nc3cc(Nc4cccc(C#N)n4)nc4[nH]c(C(F)F)nc34)c(S(C)(=O)=O)c2)n1C [I-341]
  Kd: 0.1 to 0.5 nM

## Cc1nc2c(Nc3ccc(-c4c(C)nn(C)c4C)cc3S(C)(=O)=O)cc(Nc3cnc(C)c(C)n3)nc2[nH]1 [I-342]
  Kd: 0.1 to 0.5 nM

## Cc1ncc(Nc2cc(Nc3ccc(-c4c(C)nn(C)c4C)cc3S(C)(=O)=O)c3nc(C(F)F)[nH]c3n2)nc1C [I-343]
  Kd: 0.1 to 0.5 nM

## Cc1cc(Nc2cc(Nc3ccc(-c4c(C)nn(C)c4C)cc3S(C)(=O)=O)c3nc(C)[nH]c3n2)nc(C)n1 [I-344]
  Kd: 0.1 to 0.5 nM

## Cc1cc(Nc2cc(Nc3ccc(-c4c(C)nn(C)c4C)cc3S(C)(=O)=O)c3nc(C(F)F)[nH]c3n2)nc(C)n1 [I-345]
  Kd: 0.1 to 0.5 nM

## Cc1nc2c(Nc3ccc(C4=NC(C)(C)CS4)cc3S(C)(=O)=O)cc(NC(=O)C3CC3(F)F)nc2[nH]1 (stereo not drawn) [I-346]
  Kd: > 10 nM

## Cc1nn(C)c(C)c1-c1ccc(Nc2cc(Nc3cccc(C#N)n3)nc3[nH]c(C(F)F)nc23)c(S(C)(=O)=O)c1 [I-347]
  Kd: 0.1 to 0.5 nM

## Cc1nc2c(Nc3ccc([C@@H]4CCCO4)cc3S(C)(=O)=O)cc(NC(=O)C3CC3(F)F)nc2[nH]1 (stereo partly drawn) [I-348, 2,2-difluoro-N-(2-methyl-7-((2-(methylsulfonyl)-4-((S)-tetrahydrofuran-2-yl)phenyl)amino)-3H-imidazo[4,5-b]pyridin-5-yl)cyclopropane-1-carboxamide]
  Kd: 0.1 to 0.5 nM

## COc1c(Nc2cc(Nc3cccc(C#N)n3)nc3[nH]c(C(F)F)nc23)cccc1-c1nc(C)cs1 [I-349]
  Kd: 1 to 10 nM

## Cc1c(-c2ccc(Nc3cc(NC(=O)C4CC4)nc4[nH]c(C(F)F)nc34)c(S(C)(=O)=O)c2)nn(C)c1C [I-350]
  Kd: 0.1 to 0.5 nM

## CC1(C)CSC(c2ccc(Nc3cc(NC(=O)C4CC4(F)F)nc4[nH]c(C(F)F)nc34)c(S(C)(=O)=O)c2)=N1 (stereo not drawn) [I-351, N-(2-(difluoromethyl)-7-((4-(4,4-dimethyl-4,5-dihydrothiazol-2-yl)-2-(methylsulfonyl)phenyl)amino)-3H-imidazo[4,5-b]pyridin-5-yl)-2,2-difluorocyclopropane-1-carboxamide]
  Kd: > 10 nM

## Cc1nc2c(Nc3ccc(-c4ncc(C)n4C)cc3S(C)(=O)=O)cc(Nc3cccc(C#N)n3)nc2[nH]1 [I-352]
  Kd: 0.1 to 0.5 nM

## CC1(C)CC[C@@H](c2ccc(Nc3cc(NC(=O)C4CC4)nc4[nH]c(C(F)F)nc34)c(S(C)(=O)=O)c2)OC1 [I-353]
  Kd: 0.1 to 0.5 nM

## CC1(C)CC[C@H](c2ccc(Nc3cc(NC(=O)C4CC4)nc4[nH]c(C(F)F)nc34)c(S(C)(=O)=O)c2)OC1 [I-354]
  Kd: 1 to 10 nM

## Cc1nc2c(Nc3ccc(-c4c(C)nn(C)c4C)cc3S(C)(=O)=O)cc(Nc3cccc(C#N)n3)nc2[nH]1 [I-355]
  Kd: 0.1 to 0.5 nM

## CC1(C)CCC(c2ccc(Nc3cc(NC(=O)C4CC4)nc4[nH]c(C(F)F)nc34)c(S(C)(=O)=O)c2)OC1 (stereo not drawn) [I-356]
  Kd: 0.1 to 0.5 nM

## Cc1nc2c(Nc3ccc(C4CC(C)(C)OC(C)(C)C4)cc3S(C)(=O)=O)cc(NC(=O)C3CC3)nc2[nH]1 [I-357]
  Kd: 1 to 10 nM

## CS(=O)(=O)c1cc(C2CCC2)ccc1Nc1cc(NC(=O)C2CC2(F)F)nc2[nH]c(C(F)F)nc12 (stereo not drawn) [I-358, N-(7-((4-cyclobutyl-2-(methylsulfonyl)phenyl)amino)-2-(difluoromethyl)-3H-imidazo[4,5-b]pyridin-5-yl)-2,2-difluorocyclopropane-1-carboxamide]
  Kd: > 10 nM

## CS(=O)(=O)c1cc([C@@H]2CCCOC2)ccc1Nc1cc(NC(=O)C2CC2(F)F)nc2[nH]c(C(F)F)nc12 (stereo partly drawn) [I-359, N-(2-(difluoromethyl)-7-((2-(methylsulfonyl)-4-((S)-tetrahydro-2H-pyran-3-yl)phenyl)amino)-3H-imidazo[4,5-b]pyridin-5-yl)-2,2-difluorocyclopropane-1-carboxamide]
  Kd: 1 to 10 nM

## CS(=O)(=O)c1cc([C@H]2CCCOC2)ccc1Nc1cc(NC(=O)C2CC2(F)F)nc2[nH]c(C(F)F)nc12 (stereo partly drawn) [I-360, N-(2-(difluoromethyl)-7-((2-(methylsulfonyl)-4-((R)-tetrahydro-2H-pyran-3-yl)phenyl)amino)-3H-imidazo[4,5-b]pyridin-5-yl)-2,2-difluorocyclopropane-1-carboxamide]
  Kd: 1 to 10 nM

## Cc1nc2c(Nc3ccc(C4CCC4)cc3S(C)(=O)=O)cc(NC(=O)C3CC3(F)F)nc2[nH]1 (stereo not drawn) [I-361, N-(7-((4-cyclobutyl-2-(methylsulfonyl)phenyl)amino)-2-methyl-3H-imidazo[4,5-b]pyridin-5-yl)-2,2-difluorocyclopropane-1-carboxamide]
  Kd: 1 to 10 nM

## CN=S(C)(=O)c1ccccc1Nc1cc(NC(=O)C2CC2)nc2[nH]c(C(F)F)nc12 (stereo not drawn) [I-362]
  Kd: 0.1 to 0.5 nM

## Cc1nc2c(Nc3ccc(-c4nn(C)cc4C)cc3S(C)(=O)=O)cc(NC(=O)C3CC3(C)C)nc2[nH]1 (stereo not drawn) [I-363, N-(7-((4-(1,4-dimethyl-1H-pyrazol-3-yl)-2-(methylsulfonyl)phenyl)amino)-2-methyl-3H-imidazo[4,5-b]pyridin-5-yl)-2,2-dimethylcyclopropane-1-carboxamide]
  Kd: 1 to 10 nM

## Cc1cn(C)nc1-c1ccc(Nc2cc(NC(=O)C3CC3(C)C)nc3[nH]c(C(F)F)nc23)c(S(C)(=O)=O)c1 (stereo not drawn) [I-364, N-(2-(difluoromethyl)-7-((4-(1,4-dimethyl-1H-pyrazol-3-yl)-2-(methylsulfonyl)phenyl)amino)-3H-imidazo[4,5-b]pyridin-5-yl)-2,2-dimethylcyclopropane-1-carboxamide]
  Kd: 1 to 10 nM

## CS(=O)(=O)c1cc(C2CCCCO2)ccc1Nc1cc(Nc2cccc(C(F)(F)F)n2)nc2[nH]c(C(F)F)nc12 (stereo not drawn) [I-365, 2-(difluoromethyl)-N7-(2-(methylsulfonyl)-4-(tetrahydro-2H-pyran-2-yl)phenyl)-N5-(6-(trifluoromethyl)pyridin-2-yl)-3H-imidazo[4,5-b]pyridine-5,7-diamine]
  Kd: 0.5 to 1 nM

## Cc1cc(Nc2cc(Nc3ccc(C4CCCCO4)cc3S(C)(=O)=O)c3nc(C(F)F)[nH]c3n2)nc(C)n1 (stereo not drawn) [I-366, 2-(difluoromethyl)-N5-(2,6-dimethylpyrimidin-4-yl)-N7-(2-(methylsulfonyl)-4-(tetrahydro-2H-pyran-2-yl)phenyl)-3H-imidazo[4,5-b]pyridine-5,7-diamine]
  Kd: < 0.1 nM

## Cc1cc(Nc2cc(Nc3ccc(C4CCCCO4)cc3S(C)(=O)=O)c3nc(C)[nH]c3n2)nc(C)n1 (stereo not drawn) [I-367, N5-(2,6-dimethylpyrimidin-4-yl)-2-methyl-N7-(2-(methylsulfonyl)-4-(tetrahydro-2H-pyran-2-yl)phenyl)-3H-imidazo[4,5-b]pyridine-5,7-diamine]
  Kd: < 0.1 nM

## CN(c1cc(C2CCCCO2)ccc1Nc1cc(NC(=O)C2CC2)nc2[nH]c(C(F)F)nc12)S(C)(=O)=O (stereo not drawn) [I-369, N-(2-(difluoromethyl)-7-((2-(N-methylmethylsulfonamido)-4-(tetrahydro-2H-pyran-2-yl)phenyl)amino)-3H-imidazo[4,5-b]pyridin-5-yl)cyclopropanecarboxamide]
  Kd: 0.1 to 0.5 nM

## CN(c1cc(-c2cncn2C)ccc1Nc1cc(NC(=O)[C@H]2C[C@@H]2F)nc2[nH]c(C(F)F)nc12)S(C)(=O)=O [I-370, (1R,2S)—N-(2-(difluoromethyl)-7-((4-(1-methyl-1H-imidazol-5-yl)-2-(N-methylmethylsulfonamido)phenyl)amino)-3H-imidazo[4,5-b]pyridin-5-yl)-2-fluorocyclopropane-1-carboxamide]
  Kd: 0.1 to 0.5 nM

## Cn1ccc(-c2ccc(Nc3cc(NC(=O)[C@H]4C[C@@H]4F)nc4[nH]c(C(F)F)nc34)c(S(C)(=O)=O)c2)n1 [I-371, (1R,2S)—N-(2-(difluoromethyl)-7-((4-(1-methyl-1H-pyrazol-3-yl)-2-(methylsulfonyl)phenyl)amino)-3H-imidazo[4,5-b]pyridin-5-yl)-2-fluorocyclopropane-1-carboxamide]
  Kd: 0.1 to 0.5 nM

## Cc1nc2c(Nc3ccc(-c4cnn(C)c4)cc3N(C)S(C)(=O)=O)cc(NC(=O)[C@H]3C[C@@H]3F)nc2[nH]1 [I-372, (1R,2S)-2-fluoro-N-(2-methyl-7-((4-(1-methyl-1H-pyrazol-4-yl)-2-(N-methylmethylsulfonamido)phenyl)amino)-3H-imidazo[4,5-b]pyridin-5-yl)cyclopropane-1-carboxamide]
  Kd: 0.5 to 1 nM

## COc1c(Nc2cc(NC(=O)[C@H]3C[C@@H]3F)nc3[nH]c(C)nc23)cccc1-c1ncn(C)n1 [I-373, (1R,2S)-2-fluoro-N-(7-((2-methoxy-3-(1-methyl-1H-1,2,4-triazol-3-yl)phenyl)amino)-2-methyl-3H-imidazo[4,5-b]pyridin-5-yl)cyclopropane-1-carboxamide]
  Kd: 1 to 10 nM

## Cc1nc2c(Nc3ccc(C4CCCCO4)cc3N(C)S(C)(=O)=O)cc(NC(=O)C3CC3)nc2[nH]1 (stereo not drawn) [I-375, N-(2-methyl-7-((2-(N-methylmethylsulfonamido)-4-(tetrahydro-2H-pyran-2-yl)phenyl)amino)-3H-imidazo[4,5-b]pyridin-5-yl)cyclopropanecarboxamide]
  Kd: 0.1 to 0.5 nM

## Cc1nc2c(Nc3ccc(-c4cnn(C)c4)cc3N(C)S(C)(=O)=O)cc(NC(=O)C3CC3(F)F)nc2[nH]1 (stereo not drawn) [I-376, 2,2-difluoro-N-(2-methyl-7-((4-(1-methyl-1H-pyrazol-4-yl)-2-(N-methylmethylsulfonamido)phenyl)amino)-3H-imidazo[4,5-b]pyridin-5-yl)cyclopropane-1-carboxamide]
  Kd: > 10 nM

## Cc1nc2c(Nc3ccc(-c4ccn(C)n4)cc3S(C)(=O)=O)cc(NC(=O)C3CC3(F)F)nc2[nH]1 (stereo not drawn) [I-377, 2,2-difluoro-N-(2-methyl-7-((4-(1-methyl-1H-pyrazol-3-yl)-2-(methylsulfonyl)phenyl)amino)-3H-imidazo[4,5-b]pyridin-5-yl)cyclopropane-1-carboxamide]
  Kd: 0.5 to 1 nM
